Tests used:
K562 = assay: Compound was evaluated for cytotoxic activity against K562 human chronic myelogenous leukemia cell line using MTT assay; assay type: functional, cell-based
Tubulin alpha chain = Tubulin alpha chain (Sus scrofa, UniProt P02550); assay: Tested for inhibition of polymerization of tubulin
HeLa = assay: Compound was evaluated for cytotoxic activity against HeLa S3 cell line; assay type: functional, cell-based; settings: Homo sapiens

Sequence of Tubulin alpha chain (P02550 whole entry, looked up): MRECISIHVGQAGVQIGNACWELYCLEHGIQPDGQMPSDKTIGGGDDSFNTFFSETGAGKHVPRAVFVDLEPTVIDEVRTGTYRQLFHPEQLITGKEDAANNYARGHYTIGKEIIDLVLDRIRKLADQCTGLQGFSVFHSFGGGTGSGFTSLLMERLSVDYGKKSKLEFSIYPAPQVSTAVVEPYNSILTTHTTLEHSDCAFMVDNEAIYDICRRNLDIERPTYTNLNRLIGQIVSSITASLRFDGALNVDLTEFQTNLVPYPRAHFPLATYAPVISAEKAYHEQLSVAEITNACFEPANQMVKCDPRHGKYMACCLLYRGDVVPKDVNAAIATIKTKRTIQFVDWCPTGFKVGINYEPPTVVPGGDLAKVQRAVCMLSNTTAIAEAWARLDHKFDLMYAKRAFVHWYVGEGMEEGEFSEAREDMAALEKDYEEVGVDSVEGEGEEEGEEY

IC50 (Tubulin alpha chain)	SMILES	IC50 (K562)	IC50 (HeLa)
	COc1cc(C(=O)/C(C)=C/c2ccc3c(c2)OCO3)cc(OC)c1OC	14 nM	
	COc1cc(C(=O)/C=C/c2ccc3c(c2)OCCO3)cc(OC)c1OC	80 nM	
	COc1cc(C(=O)/C=C/c2ccc3c(c2)OCO3)cc(OC)c1OC	300 nM	
	COc1ccc(OC)c(C(=O)/C=C/c2ccc(N(C)C)cc2)c1	36 nM	
12 nM	COc1ccc(OC)c(C(=O)/C(C)=C/c2ccc(N(C)C)cc2)c1	11 nM	
	COc1ccc(/C=C(\C)C(=O)c2cc(OC)c(OC)c(OC)c2)cc1O	0.21 nM	0.62 nM
	COc1ccc(/C=C/C(=O)c2cc(OC)c(OC)c(OC)c2)cc1O	4.3 nM	
	COc1cc(C(=O)/C(C)=C/c2ccc3c(c2)OCCO3)cc(OC)c1OC	12 nM	
